Measured values as given in patent US7705038B2, “Control of parasites in animals by the use of parasiticidal 2-phenyl-3-(1H-pyrrol-2-yl)acrylonitrile derivatives” (Intervet, Inc., priority 2004, dated 2010).

How the values were obtained:
[1] = system: Haemonchus contortus; experiment: Activity against Haemonchus contortus (LD99); details: dose required to kill 99% of the sample of Haemonchus contortus
Source text: (§1) Exemplified compounds of Formula 1 are listed by Tables 1a and 1b, above. The activity of these compounds against Haemonchus contortus and cat fleas (Ctenocephalides felis) is summarized by Table 7, below.
The LD99 value is the dose, expressed as μg/ml, that was required to kill 99% of the sample of Haemonchus contortus.

[2] = system: cat fleas (Ctenocephalides felis); experiment: Contact activity against cat fleas (LC50, % kill); details: for % Kill: percent of a sample of cat fleas killed at a concentration of 1.26 μg/cm^2; for LC50: concentration required to kill 50% of the sample of cat fleas on contact; for pest or weed control at 1.26 µg/cm2, 1.26 µg/cm2: Ctenocephalides felis, read-out: % Kill
Source text: as §1

COC(=O)n1cccc1/C=C(\C#N)c1ccc(Cl)cc1 [Compound 85]
LD99 [1]: 1.25 µg/mL
% Kill [2]: 16%

CCOCn1cccc1/C=C(\C#N)c1ccc2ccccc2c1 [Compound 53, 2-(2-naphthyl)-3-(1-ethoxymethyl-1H-pyrrol-2-yl)acrylonitrile]
EC99 [1]: > 15 µg/mL

Cc1ccc(S(=O)(=O)n2cccc2/C=C(\C#N)c2ccc(Cl)cc2)cc1 [Compound 83]
LD99 [1]: 12 µg/mL

N#C/C(=C\c1ccc[nH]1)c1ccc(F)cc1Cl [Compound 74]
LD99 [1]: 3 µg/mL
% Kill [2]: 30%

CC(C)c1ccc(/C(C#N)=C/c2ccc[nH]2)cc1 [Compound 87]
LD99 [1]: — (the symbol ‘—’ indicates tested but inactive up to 15 μg/ml)
% Kill [2]: 100%

N#C/C(=C\c1ccc[nH]1)c1ccccc1F [Compound 25]
LD99 [1]: 2.5 µg/mL
LC50 [2]: 0.594 μg/cm^2
% Kill [2]: 92%

CCOCn1cccc1/C=C(\C#N)c1cccc2ccccc12 [Compound 65, 2-(1-naphthyl)-3-(1-ethoxymethyl-1H-pyrrol-2-yl)acrylonitrile]
EC99 [1]: > 15 µg/mL

N#C/C(=C\c1cc(Br)c[nH]1)c1cccc(F)c1 [Compound 31]
LD99 [1]: 1.75 µg/mL
% Kill [2]: 27%

N#CC(=Cc1cc(Br)c[nH]1)c1cccc2ccccc12 [Compound 34, 2-(1-naphthyl)-3-(4-bromo-1H-pyrrol-2-yl)acrylonitrile]
EC99 [1]: 0.813 µg/mL
pest or weed control at 1.26 µg/cm2, 1.26 µg/cm2 [2]: 21%

N#C/C(=C\c1ccc[nH]1)c1cccc(Br)c1 [Compound 39]
LD99 [1]: 0.938 µg/mL
% Kill [2]: 24%

N#C/C(=C\c1ccc[nH]1)c1ccccc1Br [Compound 38]
LD99 [1]: 3.25 µg/mL
% Kill [2]: 30%

CCOCn1cccc1/C=C(\C#N)c1ccc(Br)cc1 [Compound 51]
LD99 [1]: 7.5 µg/mL

N#C/C(=C\c1ccc[nH]1)c1ccccc1 [Compound 35]
LD99 [1]: — (the symbol ‘—’ indicates tested but inactive up to 15 μg/ml)
% Kill [2]: 21%

N#C/C(=C\c1ccc[nH]1)c1ccc(Br)cc1 [Compound 33]
LD99 [1]: 3 µg/mL
% Kill [2]: 15%

N#C/C(=C\c1ccc[nH]1)c1ccccc1Cl [Compound 24]
LD99 [1]: 2.75 µg/mL
% Kill [2]: 19%

N#C/C(=C\c1cc(Br)c[nH]1)c1ccc(F)cc1 [Compound 30]
LD99 [1]: 11 µg/mL
% Kill [2]: 18%

N#C/C(=C\c1ccc[nH]1)c1ccc2ccccc2c1 [Compound 66, 2-(2-naphthyl)-3-(1H-pyrrol-2-yl)acrylonitrile]
EC99 [1]: 2.5 µg/mL
pest or weed control at 1.26 µg/cm2, 1.26 µg/cm2 [2]: 28%

CCOCn1cccc1/C=C(\C#N)c1ccc(F)cc1 [Compound 49]
LD99 [1]: 14 µg/mL

N#C/C(=C\c1ccc[nH]1)c1ccc(F)cc1F [Compound 69]
LD99 [1]: 2.5 µg/mL
% Kill [2]: 5%

N#C/C(=C\c1cccn1C(=O)OCc1ccccc1)c1ccc(Cl)cc1 [Compound 86]
LD99 [1]: 5.5 µg/mL
% Kill [2]: 20%

Cn1cccc1/C=C(\C#N)c1cccc(Cl)c1 [Compound 5]
LD99 [1]: 3 µg/mL
% Kill [2]: 6%

N#C/C(=C\c1cc(Br)c[nH]1)c1ccc(Cl)cc1 [Compound 23]
LD99 [1]: 0.469 µg/mL
% Kill [2]: 23%

CCOCn1cccc1/C=C(\C#N)c1ccc(F)c(F)c1 [Compound 62]
LD99 [1]: 6 µg/mL

CCOCn1cccc1/C=C(\C#N)c1ccc(C)cc1 [Compound 64]
LD99 [1]: — (the symbol ‘—’ indicates tested but inactive up to 15 μg/ml)
% Kill [2]: 20%

COc1ccc(/C(C#N)=C/c2ccc[nH]2)cc1 [Compound 14]
LD99 [1]: 1.5 µg/mL
% Kill [2]: 31%

CCc1ccc(/C(C#N)=C/c2ccc[nH]2)cc1 [Compound 75]
LD99 [1]: 0.875 µg/mL
% Kill [2]: 58%

N#C/C(=C\c1ccc[nH]1)c1ccccc1 [Compound 17]
LD99 [1]: 0.469 µg/mL
LC50 [2]: 0.259 μg/cm^2
% Kill [2]: 98%

N#C/C(=C\c1ccc[nH]1)c1ccc(C#N)cc1 [Compound 20]
LD99 [1]: 10 µg/mL
% Kill [2]: 44%

N#C/C(=C\c1ccc[nH]1)c1ccccc1C(F)(F)F [Compound 90]
% Kill [2]: 14%

N#C/C(=C\c1ccc[nH]1)c1ccc(Cl)cc1 [Compound 2, (Z)-2-(4-Chloro-phenyl)-3-(1H-pyrrol-2-yl)acrylonitrile]
EC99 [1]: 0.406 µg/mL
pest or weed control at 1.26 µg/cm2, 1.26 µg/cm2 [2]: 95%
LC50 [2]: 0.17 μg/cm^2

CCOCn1cccc1/C=C(\C#N)c1ccc(C(F)(F)F)cc1 [Compound 8]
LD99 [1]: 5 µg/mL
% Kill [2]: 6%

N#C/C(=C\c1ccc[nH]1)c1cc(C(F)(F)F)cc(C(F)(F)F)c1 [Compound 68]
LD99 [1]: — (the symbol ‘—’ indicates tested but inactive up to 15 μg/ml)
% Kill [2]: 27%

N#C/C(=C\c1ccc[nH]1)c1ccccc1-c1ccccc1 [Compound 89]
% Kill [2]: 2%

CC(C)(C)OC(=O)n1cccc1/C=C(\C#N)c1ccc(Cl)cc1 [Compound 79]
LD99 [1]: 3.75 µg/mL
% Kill [2]: 9%

CN(C)C(=S)n1cccc1/C=C(\C#N)c1ccc(Cl)cc1 [Compound 84]
LD99 [1]: 10 µg/mL
% Kill [2]: 19%

N#C/C(=C\c1ccc[nH]1)c1ccc(-c2ccccc2)cc1 [Compound 18]
LD99 [1]: 7.5 µg/mL
% Kill [2]: 46%

Cc1ccc(/C(C#N)=C/c2ccc[nH]2)cc1 [Compound 26]
LD99 [1]: 0.938 µg/mL
% Kill [2]: 69%

N#C/C(=C\c1ccc[nH]1)c1ccc(Cl)cc1Cl [Compound 13]
LD99 [1]: 3 µg/mL
% Kill [2]: 8%

N#C/C(=C\c1ccc[nH]1)c1cccc(Cl)c1 [Compound 1]
LD99 [1]: 0.75 µg/mL
% Kill [2]: 28%

CC(C)=CCn1cccc1/C=C(\C#N)c1ccc(Cl)cc1 [Compound 80, (Z)-2-(4-chlorophenyl)-3-(1-(3-methylbut-2-enyl)-1H-pyrrol-2-yl)acrylonitrile]
EC99 [1]: > 15 µg/mL

CCOCn1cccc1/C=C(\C#N)c1ccc(Cl)c(Cl)c1 [Compound 56]
LD99 [1]: 6.5 µg/mL

CCOCn1cccc1/C=C(\C#N)c1ccccc1C(F)(F)F [Compound 57]
LD99 [1]: — (the symbol ‘—’ indicates tested but inactive up to 15 μg/ml)

N#C/C(=C\c1cc(Br)c[nH]1)c1cccc(C(F)(F)F)c1 [Compound 12]
LD99 [1]: 3.25 µg/mL

CCOCn1cccc1/C=C(\C#N)c1ccc(Cl)cc1 [Compound 7, (Z)-2-(4-Chloro-phenyl)-3-(1-ethoxymethyl-1H-pyrrol-2-yl)acrylonitrile]
EC99 [1]: 5.5 µg/mL
pest or weed control at 1.26 µg/cm2, 1.26 µg/cm2 [2]: 6%

Cn1cccc1/C=C(\C#N)c1cccc(C(F)(F)F)c1 [Compound 22]
LD99 [1]: 5.5 µg/mL
% Kill [2]: 19%

N#C/C(=C\c1ccc[nH]1)c1ccc(F)cc1 [Compound 28]
LD99 [1]: 2.5 µg/mL
LC50 [2]: 0.295 μg/cm^2
% Kill [2]: 19%

N#C/C(=C\c1ccc[nH]1)c1ccc(Cl)c(Cl)c1 [Compound 27]
LD99 [1]: 0.406 µg/mL
% Kill [2]: 78%

Cc1cccc(/C(C#N)=C/c2ccc[nH]2)c1 [Compound 72]
LD99 [1]: 1.25 µg/mL
% Kill [2]: 42%

N#C/C(=C\c1ccc[nH]1)c1cccc(C(F)(F)F)c1 [Compound 9]
LD99 [1]: 0.938 µg/mL
LC50 [2]: 9.94 μg/cm^2
% Kill [2]: 56%

N#C/C(=C\c1ccc[nH]1)c1c(F)cccc1Cl [Compound 67]
LD99 [1]: — (the symbol ‘—’ indicates tested but inactive up to 15 μg/ml)
% Kill [2]: 7%

CCOCn1cccc1/C=C(\C#N)c1cccc(Br)c1 [Compound 58]
LD99 [1]: — (the symbol ‘—’ indicates tested but inactive up to 15 μg/ml)

N#C/C(=C\c1ccc[nH]1)c1cccc2ccccc12 [Compound 32, 2-(1-naphthyl)-3-(1H-pyrrol-2-yl)acrylonitrile]
EC99 [1]: 0.234 µg/mL
pest or weed control at 1.26 µg/cm2, 1.26 µg/cm2 [2]: 42%

N#C/C(=C\c1cc(Cl)c(Cl)[nH]1)c1ccc(Cl)cc1 [Compound 3]
LD99 [1]: 3 µg/mL
% Kill [2]: 15%

CCOCn1cccc1/C=C(\C#N)c1ccccc1C#N [Compound 50]
LD99 [1]: — (the symbol ‘—’ indicates tested but inactive up to 15 μg/ml)

CCOCn1cccc1/C=C(\C#N)c1cccc(C)c1 [Compound 63]
LD99 [1]: 13 µg/mL

N#C/C(=C\c1ccc[nH]1)c1ccc2c(c1)OCO2 [Compound 19, 2-(3,4-methylenedioxy)phenyl-3-(1H-pyrrol-2-yl)acrylonitrile]
EC99 [1]: 6 µg/mL
pest or weed control at 1.26 µg/cm2, 1.26 µg/cm2 [2]: 26%

CCC(=O)n1cccc1/C=C(\C#N)c1ccc(Cl)cc1 [Compound 76, (Z)-2-(4-Chlorophenyl)-3-(1-propanoyl-1H-pyrrol-2-yl)acrylonitrile]
EC99 [1]: 0.375 µg/mL
pest or weed control at 1.26 µg/cm2, 1.26 µg/cm2 [2]: 12%

N#C/C(=C\c1ccc[nH]1)c1ccc(F)c(Cl)c1 [Compound 81]
LD99 [1]: 1.25 µg/mL
% Kill [2]: 5%

Cn1cccc1/C=C(\C#N)c1ccc(C(F)(F)F)cc1 [Compound 21]
LD99 [1]: — (the symbol ‘—’ indicates tested but inactive up to 15 μg/ml)
% Kill [2]: 24%

Cc1ccccc1/C(C#N)=C/c1ccc[nH]1 [Compound 16, (Z)-2-(2-Methyl-phenyl)-3-(1H-pyrrol-2-yl)acrylonitrile]
EC99 [1]: 3.75 µg/mL
pest or weed control at 1.26 µg/cm2, 1.26 µg/cm2 [2]: 100%
LC50 [2]: 0.076 μg/cm^2

CCOCn1cccc1/C=C(\C#N)c1c(F)cccc1F [Compound 61]
LD99 [1]: — (the symbol ‘—’ indicates tested but inactive up to 15 μg/ml)

CCOCn1cccc1/C=C(\C#N)c1ccccc1Cl [Compound 54]
LD99 [1]: 7 µg/mL

CCOCn1cccc1/C=C(\C#N)c1c(Cl)cccc1Cl [Compound 52]
LD99 [1]: — (the symbol ‘—’ indicates tested but inactive up to 15 μg/ml)

CCOCn1cccc1/C=C(\C#N)c1cc(C(F)(F)F)cc(C(F)(F)F)c1 [Compound 59]
LD99 [1]: — (the symbol ‘—’ indicates tested but inactive up to 15 μg/ml)

COc1ccccc1/C(C#N)=C/c1ccc[nH]1 [Compound 91]
% Kill [2]: 9%
